Read-outs that look alike come from different tables or passages of the source.
Legend:
human EHMT2 913-1193 = target: T1, human EHMT2 913-1193 (Homo sapiens, UniProt Q96KQ7); experiment: EHMT2 enzyme assay on histone peptide substrate; type: biochemical; conditions: histone H3 1-15 peptide, balanced conditions
T1 construct: recombinant purified human EHMT2 913-1193, Viva; purchased Viva
T1 sequence (Q96KQ7 913-1193): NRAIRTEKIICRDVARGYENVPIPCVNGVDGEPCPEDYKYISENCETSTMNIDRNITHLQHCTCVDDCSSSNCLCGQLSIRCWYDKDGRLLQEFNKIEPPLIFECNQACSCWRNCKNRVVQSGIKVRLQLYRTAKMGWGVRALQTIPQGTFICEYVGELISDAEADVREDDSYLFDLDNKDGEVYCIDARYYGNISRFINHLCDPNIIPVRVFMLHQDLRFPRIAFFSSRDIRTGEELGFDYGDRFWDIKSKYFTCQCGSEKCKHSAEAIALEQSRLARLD
Excerpt: Recombinant purified human EHMT2 913-1193 ([…]) synthesized by Viva was used for all experiments. Biotinylated histone peptides were synthesized by Biopeptide and HPLC-purified to >95% purity. Streptavidin Flashplates and seals were purchased from PerkinElmer and 384 Well V-bottom Polypropylene Plates were from Greiner. ^3H-labeled S-adenosylmethionine (^3H-SAM) was obtained from American Radiolabeled Chemicals with a specific activity of 80 Ci/mmol. Unlabeled SAM and S-adenosylhomocysteine (SAH) were obtained from American Radiolabeled Chemicals and Sigma-Aldrich respectively. Flashplates were washed in a Biotek ELx-405 with 0.1% Tween. 384-well Flashplates and 96-well filter binding plates were read on a TopCount microplate reader (PerkinElmer). Compound serial dilutions were performed on a Freedom EVO (Tecan) and spotted into assay plates using a Thermo Scientific Matrix PlateMate (Thermo Scientific). Reagent cocktails were added by Multidrop Combi (Thermo Scientific).
10-point curves of test compounds were made on a Freedom EVO (Tecan) using serial 3-fold dilutions in DMSO, beginning at 2.5 mM (final top concentration of compound was […] and the DMSO was 2%). A 1 μL aliquot of the inhibitor dilution series was spotted in a polypropylene 384-well V-bottom plate (Greiner) using a Thermo Scientific Matrix PlateMate (Thermo Scientific). The 100% inhibition control consisted of 1 mM final concentration of the product inhibitor S-adenosylhomocysteine (SAH, Sigma-Aldrich). Compounds were incubated for 30 minutes with 40 μL per well of 0.031 nM EHMT2 (recombinant purified human EHMT2 913-1193, Viva) in 1× assay buffer (20 mM Bicine [pH 7.5], 0.002% Tween 20, 0.005% Bovine Skin Gelatin and 1 mM TCEP). 10 μL per well of substrate mix comprising assay buffer, ^3H-SAM (^3H-labeled S-adenosylmethionine, American Radiolabeled Chemicals, specific activity of 80 Ci/mmol), unlabeled SAM (American Radiolabeled Chemicals), and peptide representing histone H3 residues 1-15 containing C-terminal biotin (appended to a C-terminal amide-capped lysine, synthesized by Biopeptide and HPLC-purified to greater than 95% purity) were added to initiate the reaction (both substrates were present in the final reaction mixture at their respective Km values, an assay format referred to as “balanced conditions”). Reactions were incubated for 60 minutes at room temperature and quenched with 10 μL per well of 400 μM unlabeled SAM, then transferred to a 384-well streptavidin Flashplate (PerkinElmer) and washed in a Biotek ELx-405 well washer with 0.1% Tween after 60 minutes. 384-well Flashplates were read on a TopCount microplate reader (PerkinElmer).

[1] = tested on: H3K9me2 in MDA-MB-231 cells; experiment: MDA-MB-231 H3K9me2 in-cell western assay (EHMT2 ICW); type: cell-based; conditions: Homo sapiens
Excerpt: MDA-MB-231 cell line was purchased from ATCC (Manassas, Va., USA). RPMI/Glutamax medium, Penicillin-Streptomycin, Heat Inactivated Fetal Bovine Serum, and D-PBS were purchased from Life Technologies (Grand Island, N.Y., USA). Odyssey blocking buffer, 800 CW goat anti-mouse IgG (H+L) antibody, and Licor Odyssey Infrared Scanner were purchased from Licor Biosciences, Lincoln, Nebr., USA. H3K9me2 mouse monoclonal antibody (Cat #1220) was purchased from Abcam (Cambridge, Mass., USA). 16% Paraformaldehyde was purchased from Electron Microscopy Sciences, Hatfield, Pa., USA). MDA-MB-231 cells were maintained in complete growth medium (RPMI supplemented with 10% v/v heat inactivated fetal bovine serum) and cultured at 37° C. under 5% C02. UNC0638 was purchased from Sigma-Aldrich (St. Louis, Mo., USA).
General Procedure for MDA-MB-231 HEK9me2 in-Cell Western Assay.
Compound (100 nL) was added directly to 384-well cell plate. MDA-MB-231 cells (ATCC) were seeded in assay medium (RPMI/Glutamax supplemented with 10% v/v heat inactivated fetal bovine serum and 1% Penicillin/Streptomycin, Life Technologies) at a concentration of 3,000 cells per well to a Poly-D-Lysine coated 384-well cell culture plate with 50 μL per well. Plates were incubated at 37° C., 5% CO2 for 48 hours (BD Biosciences 356697). […] After the incubation, 50 μL per well of 8% paraformaldehyde (Electron Microscopy Sciences) in PBS was added to the plates and incubated at room temperature for 20 minutes. Plates were transferred to a Biotek 406 plate washer and washed 2 times with 100 μL per well of wash buffer (1×PBS containing 0.3% Triton X-100 (v/v)). Next, 60 μL per well of Odyssey blocking buffer (Licor Biosciences) was added to each plate and incubated for 1 hour at room temperature. Blocking buffer was removed and 20 μL of monoclonal primary antibody α-H3K9me2 (Abcam) diluted 1:800 in Odyssey buffer with 0.1% Tween 20 (v/v) were added and plates were incubated overnight (16 hours) at 4° C. Plates were washed 5 times with 100 μL per well of wash buffer. Next 20 μL per well of secondary antibody was added (1:500 800 CW donkey anti-mouse IgG (H+L) antibody (Licor Biosciences), 1:1000 DRAQ5 (Cell Signaling Technology) in Odyssey buffer with 0.1% Tween 20 (v/v)) and incubated for 1 hour at room temperature. The plates were washed 5 times with 100 μL per well wash buffer then 2 times with 100 μL per well of water. Plates were allowed to dry at room temperature then imaged on a Licor Odyssey Infrared Scanner (Licor Biosciences) which measured integrated intensity at 700 nm and 800 nm wavelengths. Both 700 and 800 channels were scanned.
First, the ratio for each well was determined by:
Each plate included fourteen control wells of DMSO only treatment (Minimum Inhibition) as well as fourteen control wells (background wells) for maximum inhibition treated with control compound UNC0638 (Background wells).
The average of the ratio values for each well was calculated and used to determine the percent inhibition for each test well in the plate. Control compound was serially diluted three-fold in DMSO for a total of 10 test concentrations beginning at 1 μM. Percent inhibition was calculated as: […]
IC50 curves were generated using triplicate wells per concentration of compound. The IC50 is the concentration of compound at which measured methylation is inhibited by 50% as interpolated from the dose response curves. IC50 values were calculated using a non-linear regression (variable slope-four parameter fit model) with by the following formula:
where Top is fixed at 100% and Bottom is fixed to 0%, [I]=concentration of inhibitor, IC50=half maximal inhibitory concentration and n=Hill Slope.

[2] = Table 3A, read-out: EHMT2 (IC50 μM)
[3] = Table 3A, read-out: ICW (IC50 μM)
[4] = Table 3, read-out: EHMT2 PEP (IC50 μM)
[5] = Table 3, read-out: EHMT2 ICW (IC50 μM)

Row | SMILES | IC50 (human EHMT2 913-1193; [2]) | IC50 [1, 3] | IC50 (human EHMT2 913-1193; [4]) | IC50 [1, 5]
1 | CNCc1cnn(-c2c(OC)ccc(Nc3nc(NC)cc(C(C)C)n3)c2F)c1 [Compound A8, N^2-(2-fluoro-4-methoxy-3-[4-[(methylamino)methyl]-1H-pyrazol-1-yl]phenyl)-N^4-methyl-6-(propan-2-yl)pyrimidine-2,4-diamine] | 0.01 to 0.1 µM | 0.01 to 0.1 µM |  | 
2 | CNc1cc(C)nc(Nc2ccc(Cl)c(C(=O)NCC3CC3)c2)n1 [Compound 4] |  |  | > 10 µM | > 10 µM
3 | CNC1=Nc2cc(-n3cc(CN4CCC4)cn3)c(Cl)cc2C12CCC2 [Compound A17, 6′-(4-(azetidin-1-ylmethyl)-1H-pyrazol-1-yl)-5′-chloro-N-methylspiro[cyclobutane-1,3′-indol]-2′-amine] | 0.01 to 0.1 µM | 0.1 to 1 µM |  | 
4 | CNc1cc(C)nc(Nc2ccc(Cl)c(C(=O)Nc3cscn3)c2)n1 [Compound 13] |  |  | 1 to 10 µM | 1 to 10 µM
5 | CNc1cc(C)nc(Nc2ccc(OC)c(C#CCN3CCNCC3)c2)n1 [Compound 28, 2-N-[4-methoxy-3-[3-(piperazin-1-yl)prop-1-yn-1-yl]phenyl]-4-N,6-dimethylpyrimidine-2,4-diamine] |  |  | 0.1 to 1 µM | 1 to 10 µM
6 | CNc1cc(C)nc(Nc2ccc(C3CC3)c(CNCCN3CCCC3)c2)n1 [Compound 11, 2-N-[4-cyclopropyl-3-([[2-(pyrrolidin-1-yl)ethyl]amino]methyl)phenyl]-4-N,6-dimethylpyrimidine-2,4-diamine] |  |  | 0.1 to 1 µM | 1 to 10 µM
7 | CNc1cc(C)nc(Nc2ccc(OC)c(OC[C@H](O)CN3CCCCC3)c2)n1 [Compound 40] |  |  | > 10 µM | > 10 µM
8 | CNc1cc(C)nc(Nc2ccc(OC)c(OC[C@H](O)CN3CC4(CC4)C3)c2)n1 [Compound 41] |  |  | > 10 µM | > 10 µM
9 | CNc1cc(C)nc(Nc2ccc(Cl)c(C(=O)NCC3COC3)c2)n1 [Compound 2, 2-chloro-5-[[4-methyl-6-(methylamino)pyrimidin-2-yl]amino]-N-(oxetan-3-ylmethyl)benzamide] |  |  | > 10 µM | > 10 µM
10 | CNc1cc(C)nc(Nc2ccc(Cl)c(C(=O)Nc3ncco3)c2)n1 [Compound 6] |  |  | 1 to 10 µM | 1 to 10 µM
11 | CNc1cc(C)nc(Nc2ccc(OC)c(CNC[C@@H](C)N3CCCC3)c2)n1 [Compound 42] |  |  | 0.1 to 1 µM | 1 to 10 µM
12 | CNCc1cn(-c2c(Cl)ccc(Nc3nc(C)cc(NC)n3)c2Cl)nn1 [Compound A13, N2-(2,4-dichloro-3-(4-((methylamino)methyl)-1H-1,2,3-triazol-1-yl)phenyl)-N4,6-dimethylpyrimidine-2,4-diamine] | < 0.01 µM | 0.01 to 0.1 µM |  | 
13 | CNc1cc(C)nc(Nc2ccc(OC)c(CNCCN3CC(C)C3)c2)n1 [Compound 35] |  |  | > 10 µM | > 10 µM
14 | CNc1cc(C)nc(Nc2ccc(Cl)c(C(=O)Nc3cccnn3)c2)n1 [Compound 5] |  |  | > 10 µM | > 10 µM
15 | CNc1cc(C)nc(Nc2ccc(C)c(C(=O)Nc3c[nH]cn3)c2)n1 [Compound 37] |  |  | 1 to 10 µM | > 10 µM

The remaining lines, values ahead:

Row | IC50 (human EHMT2 913-1193; [2]) | IC50 [1, 3] | IC50 (human EHMT2 913-1193; [4]) | IC50 [1, 5] | SMILES
16 | 0.01 to 0.1 µM | 0.01 to 0.1 µM |  |  | CNCc1cn(-c2c(OC)ccc(Nc3nc(C)cc(NC)n3)c2F)nn1 [Compound A3, N2-(2-fluoro-4-methoxy-3-[4-[(methylamino)methyl]-1H-1,2,3-triazol-1-yl]phenyl)-N4,6-dimethylpyrimidine-2,4-diamine]
17 | 0.1 to 1 µM | 0.1 to 1 µM |  |  | CCNCc1cnn(-c2c(OC)ccc(Nc3nc(C)cc(NC)n3)c2F)c1 [Compound A7]
18 | < 0.01 µM | 0.01 to 0.1 µM |  |  | CNCc1cn(-c2cc(Nc3nc(C)cc(NC)n3)ccc2Cl)nn1 [Compound A1]
19 | 0.01 to 0.1 µM | 0.01 to 0.1 µM |  |  | CNc1cc(C)nc(Nc2ccc(OC)c(-n3cc([C@H]4CCCN4)nn3)c2F)n1 [Compound A4R]
20 | 0.01 to 0.1 µM | 0.1 to 1 µM |  |  | CNCc1cn(-c2cc3c(cc2Cl)C2(CCC2)C(N)=N3)nn1 [Compound A15, 5′-chloro-6′-(4-((methylamino)methyl)-1H-1,2,3-triazol-1-yl)spiro[cyclobutane-1,3′-indol]-2′-amine]
21 | < 0.01 µM | 0.01 to 0.1 µM |  |  | CNC1=Nc2cc(-n3cc([C@H]4CCCN4)nn3)c(Cl)cc2C12CCC2 [Compound A2R, (R)-5′-chloro-N-methyl-6′-(4-(pyrrolidin-2-yl)-1H-1,2,3-triazol-1-yl)spiro[cyclobutane-1,3′-indol]-2′-amine]
22 | 0.1 to 1 µM | > 1 µM |  |  | CNC1=Nc2cc(-n3cc([C@@H]4CCCN4)nn3)c(Cl)cc2C12CCC2 [Compound A2S, (S)-5′-chloro-N-methyl-6′-(4-(pyrrolidin-2-yl)-1H-1,2,3-triazol-1-yl)spiro[cyclobutane-1,3′-indol]-2′-amine]
23 |  |  | > 10 µM | > 10 µM | CNc1cc(C)nc(Nc2ccc(OC)c(C#CC[N+](C)(C)CCN)c2)n1 [Compound 45]
24 |  |  | 1 to 10 µM | 1 to 10 µM | CNc1cc(C)nc(Nc2ccc(OC)c(C#CCNCCN(C)C)c2)n1 [Compound 49]
25 | 0.01 to 0.1 µM | 0.1 to 1 µM |  |  | CNCc1cc(-c2c(OC)ccc(Nc3nc(C)cc(NC)n3)c2F)no1 [Compound A14, N2-(2-fluoro-4-methoxy-3-[5-[(methylamino)methyl]-1,2-oxazol-3-yl]phenyl)-N4,6-dimethylpyrimidine-2,4-diamine]

From US20200317642A1, “AMINE-SUBSTITUTED HETEROCYCLIC COMPOUNDS AS EHMT2 INHIBITORS AND DERIVATIVES THEREOF” (Epizyme, Inc., priority 2017, published 2020)
